Assay: Human HepG2 cell viability assay in 384 well format
Type: toxicity, cell-based
Parameters: dose 125 nL, time 70.5 hour; cytotoxicity at 70.5 h: concentration not given beside the values
Conditions: HepG2 cells, read-out: Inhibition

Compound	cytotoxicity at 70.5 h [%]
Cc1cccc(CN2C(=O)CCC23CCN(C(=O)NC(C)C)CC3)n1	-2.54
Cc1cn2c(n1)CCC(NC(=O)c1cc(C3CC3)[nH]n1)C2 (configuration not stated)	-4.74
Cc1ccn(CCNc2ncnc3c2CCN(c2cnccn2)CC3)n1	2.31
Cc1cn2nc(N3CCCC3Cn3nc(C)cc3C)sc2n1 (configuration not stated)	-7.66
O=S(=O)(C1CC1)N1CCCn2nnc(Cn3cccc3)c2C1	-8.69
CC(C)(C)C(=O)N1CCN(CCOc2cccc(C#N)c2)CC1	-5.91
CCN1CCN(C(=O)c2cnn(-c3ccccc3Cl)c2)CC1	-8.2
CC(=O)N1CC2(CCN(C(=O)C3CC3)CC2)c2cc(C)ccc21	6.48
CNS(=O)(=O)c1cc(C)c2[nH]c(=O)cc(C)c2c1	-16.4
CCc1ncncc1C(=O)N1CCN(Cc2ccsc2)CC1	7.59
CNC(=O)c1nc2c(s1)CCN(C(=O)Cc1ccc(OC)cc1)CC2	20.5
CN1CCN(CC2CC2)C(=O)C12CCN(C(=O)c1ccnnc1)CC2	-5.46
CC(C)N(CC(N)=O)C(=O)c1cnc(-c2ccc3c(c2)OCO3)s1	5.92
CC(=O)N1CCCCC1c1nnc2n1CCNC2 (configuration not stated)	17.5
CN1CCN(c2ncnc3c2CCN(S(=O)(=O)C2CC2)CC3)CC1	-11.6
O=C(c1cc[nH]n1)N1CC[C@@H]2CN(Cc3ccccc3)S(=O)(=O)[C@@H]2CC1	-13.3
CC(C)CCC(=O)N1CCN(C(C)c2nnc(CC(C)C)o2)CC1 (configuration not stated)	23.3
CCOc1ccc(Oc2cc(N)ccn2)cc1	-4.03
CC1CN(c2ccc(CNC(=O)NCc3ccoc3)cn2)CCO1 (configuration not stated)	-5.8
CN(Cc1ccccc1)CC1(O)CCCN(CC(C)(C)C)C1=O (configuration not stated)	-3.59
CCC(CO)N(C/C(C)=C/c1ccco1)Cc1ccsc1 (configuration not stated)	3.15

Compound	cytotoxicity at 70.5 h [%]
O=C(NCC1CC1)c1cc(Cl)c2c(c1)OCCCO2	8.95
Cc1cccc(CN2C(=O)CC[C@@H]3[C@H]2CCN3Cc2ccc(F)cc2)n1	-4.94
CSc1ccccc1C(=O)C1CCCN(Cc2cc(C(C)C)[nH]n2)C1 (configuration not stated)	-6.68
O=C(c1ccnn1COc1ccc(Cl)cc1)N1CCCC1	-1.93
CCCN(CC(=O)OC)C(=O)c1sc(C)nc1C	-15.4
CC(C)CN(Cc1ccc(O)c(C(=O)O)c1)Cc1cnn(C)c1	-1.34
Fc1cnc(N2CCCC3(CCN(Cc4nccs4)C3)C2)nc1 (configuration not stated)	15
CCc1nc(CN2CCCN(Cc3noc(C4CC4)n3)CC2)cs1	-0.776
CCN(CC)C(=O)CCNc1cncc(-n2nc(C)cc2C)n1	-1.19
O=C1[C@H]2CN(Cc3ccc(F)cc3)C[C@H]2CN1c1cncnc1	0.584
O=C(CC1CC1)N1CCC2(CC1)CN(c1ccsc1)C(=O)CO2	-2.64
Cc1nc(NC(=O)C2(C)CN(C)CCO2)sc1C (configuration not stated)	-2.07
CC(C)c1n[nH]c(C2CN(C(=O)Cn3ccccc3=O)CCO2)n1 (configuration not stated)	-2.65
O=C(NCc1cnn2cccnc12)C1CC2(CCNCC2)CN1 (configuration not stated)	-4.05
COCCCNC(=O)c1cc(C(C)C)nc(N2CCCCCC2)n1	-8.22
COCCCn1cnnc1CNc1cc(C)nc2ccnn12	-4.02
Cc1cnc(NC(=O)N2CCOCC2)s1	-2.62
CCS(=O)(=O)N1CCc2c(cccc2NC(=O)NCCO)C1	12.8
COc1cccc([C@H]2CN(C(=O)c3nnc4n3CCCC4)C[C@@H]2N)c1	-3.91
CCOc1ncccc1CNC(=O)c1cccc(C)n1	-17.3
CCOCc1nc(N2CCCC2)sc1C(=O)NCc1ccco1	-5.28

Compound	cytotoxicity at 70.5 h [%]
Cc1cnn(CC2CCCN2C(=O)Cc2c(C)nc(C)[nH]c2=O)c1 (configuration not stated)	15.2
FC(F)(F)Cn1nnnc1SCCN1CCCCC1	-7.69
Cc1nc[nH]c1CN1CCC2(CC1)CC(Nc1ncccn1)CO2 (configuration not stated)	-94.8
CNC(=O)N1CC[C@H]2N(C)CC[C@@]2(C(=O)Nc2ccccc2)CC1	-4.01
COc1ccc(-n2ncc3c2NC(=O)CSC3CC(C)C)cc1 (configuration not stated)	-19.5
Cc1csc(CCNC(=O)N2CCC(n3cccc3)CC2)n1	-7.68
CC(=O)c1c(O)n(C)c2ccccc12	25.3
COc1cc(OC)cc(C(=O)N2CCOCC2c2[nH]ncc2C)c1 (configuration not stated)	18
O=C(CCCc1nnc(-c2ccccc2)o1)N1CCN(CCO)CC1	-32.4
Cn1ccnc1CN1CCN2C[C@H](OCc3cccnc3)C[C@H]2C1	-2.68
CCOC(=O)NCCC(=O)NCc1ccc(Oc2ccc(F)cc2)nc1	1.62
CCN(Cc1ccccc1)c1ncnc2c(C)nn(CC)c12	-4.47
Cc1cccc(N2CCN(CCS(=O)(=O)c3ccc(Br)cc3)CC2)c1C	-9.15
COCCN1CCC2(C1)CN(c1ncc(F)cn1)C2	0.704
Cc1csc(CCNC(=O)C2CCCN(C3CCOCC3)C2)n1 (configuration not stated)	-11.1
O=C(Cc1ccccc1)N1CCC2(CC(=O)N(c3ccsc3)C2)C1 (configuration not stated)	-0.17
COCCN(C)c1ccc(NCc2cscn2)nc1	24.9
CCn1cnnc1C1CCN(C(=O)c2ccc3c(c2)nnn3C)CC1	22.3
COCCN(C)C[C@H]1CC[C@@H](Cc2ccc3c(cnn3C)c2)O1	-6.52
CN(Cc1cnn(C)c1)C(=O)NCCc1ccc2c(c1)OCCO2	-2.65
CN(C)Cc1cc(-c2nccn2CCc2cccnc2)ccc1O	-5.02

Compound	cytotoxicity at 70.5 h [%]
O=C(C1CCOC1)N1CCC2(CCN(Cc3nccs3)C2)CC1 (configuration not stated)	-10.1
Cn1cc(CN2CCCC(CCc3ccccc3C(F)(F)F)C2)cn1 (configuration not stated)	-1.24
Cc1n[nH]c(C)c1-c1c(C#N)c(N)nc2c1CCc1[nH]ccc1-2	-3.53
CC(C)c1nc(C2CCCN2CCOCC2CC2)no1 (configuration not stated)	-15.5
CCN1Cc2ccccc2N(C(=O)C2CCC2)CCC1=O	-5.17
Cc1nc(C)n(CC2CN(CCOc3cccc(F)c3)CCO2)n1 (configuration not stated)	-9.64
COc1ccc(CN2CC[C@@H]3CN(S(C)(=O)=O)CCO[C@@H]3C2)cc1	-2.97
CN(C)CCCN(C)C1CCN(c2cccc(-c3cscn3)c2)CC1	-2.04
CCN(CC)C(=O)CNS(=O)(=O)c1cc(Br)ccc1F	-5.2
Nc1ncncc1-c1noc([C@@H]2CCCN2Cc2cccnc2)n1	-9.55
CCCOc1ccc(C2SCC(=O)Nc3c2c(=O)[nH]n3C(C)C)cc1 (configuration not stated)	-18.7
CN(C)C[C@H]1OC[C@@H]2CCN(C(=O)c3ccco3)C[C@@H]21	-1.52
CCOCCCC(=O)N1CCCC1c1nc(-c2ccccc2F)c[nH]1 (configuration not stated)	-2.77
CCn1cc(CN2CCCN(C3Cc4ccccc4C3)CC2)cn1	-7.57
c1cnn(CC2CCCN2c2ncnc3c2CCC3)c1 (configuration not stated)	4.07
CSC1=Nc2c(cnn2-c2cccc(Cl)c2)C2=NCCCN12	-12
Cc1nc2n(n1)CC(NCc1csc(-c3ccsc3)n1)CC2 (configuration not stated)	-8.64
COCc1c(Br)cccc1NC(=O)N(C)CCO	-12.1
O=C(c1cccc(O)c1)N1C[C@@H](CN2CCCCC2)[C@@H](CO)C1	-4.01
